Tests used:
Assay type in all cases: cell-based
[1] = system: HSP70 protein level; test: HSP70 ELISA (Abcam kit), normal human dermal fibroblasts, 24 h treatment; conditions: for stimulation of HSP70 protein level as compared to control: HDF cells, FIG. 5; for HSP70 induction value (Control = 1): normal human dermal fibroblasts, FIG. 3
Method: Normal human dermal fibroblasts were cultured in 6-well tissue culture treated plates. Cells were treated with test material (agent/compound) at the concentrations indicated, or with respective vehicle control diluted in growth medium, for 24 hours in a humidified 37° C. incubator with 5% CO2. After incubation, growth medium from each plate was removed and cells were lysed. HSP70 protein level in the cells was determined by a commercially available ELISA kit (Abcam, Cambridge, Mass.). In FIG. 3, Control induction value=1; shikonin (1 μM concentration) induction value=1.7; Arnica Montana (0.003% concentration) induction value=1.86; resveratrol (0.003% concentration) induction value=1.47; and G. T. polyphenol (0.003% concentration) induction value=1.24.
(§1) Similar experimentation on other HSP70 inducers was performed using an HSP70 ELISA kit (available from Abcam; cat. # ab133060). Briefly, normal human dermal fibroblasts (Cascade Biologics) were seeded into four wells of a six well plate (5.0×10^5 cells/well) and cultured overnight. The following day, cells were replenished with fresh media and test compositions were added. The test compositions including their control for each formulation: […]
The active ingredient was formulated in the ethanol:water control. Following 24 hours of treatment, the cells were lysed and the HSP70 protein level was measured using an ELISA kit (available from Abcam). Cells were lysed using the lysis buffer provided with the kit. The amount of proteins for each sample was calculated using the standard curve.
The assay was performed in triplicate for each sample and the values represent mean±S.D. (standard deviation). Samples labeled with “*” indicate a p value compared to the control of less than 0.05.

[2] = system: HSP70 protein level; test: HSP70 ELISA (Enzo kit), normal human dermal fibroblasts, 24 h treatment; conditions: 0.01%, HDF cells, FIG. 4
Method: as §1, with “Normal” for “Similar experimentation on other HSP70 inducers was performed using an HSP70 ELISA kit (available from Abcam; cat. # ab133060). Briefly, normal”
Following 24 hours of treatment, the cells were lysed and the HSP70 protein level was measured using an ELISA kit (available from Enzo Life Sciences). Cells were lysed using the lysis buffer provided with the kit. The amount of proteins for each sample was calculated using the standard curve.
The assay was performed in triplicate for each sample and the values represent mean±S.D. (standard deviation).

[3] = system: HSP70 protein level; test: HSP70 ELISA (Abcam kit), full thickness human 3D skin cultures (MatTek), 24 h treatment; conditions: 1% by weight, skin 3-D tissues, FIG. 6
Method: A series of experiments was conducted to assess the effects of various treatments with HSP70 inducers on full thickness 3D skin cultures. Human 3D skin (MatTek, Mass.) were cultured following the manufacturer's instructions overnight. The following day, tissues were replenished with fresh media and then compositions comprising various potential actives were added. Following 24 hours of treatment, the tissues were lysed and the HSP70 protein level was measured using an ELISA kit (available from Abcam). The amount of the proteins was calculated according to the standard curve. For these measurements, the test materials were formulated in control at 1% by weight of the composition or at 0.04% by weight of the composition (Arnica montana, rosemary, black cohosh, turmeric, chamomile, aloe, horse chestnut, linseed, grapeseed, argan oil, gromwell, marjoram, sage, lauric acid, butyric acid) or they were formulated in control at 0.04% by weight of the composition (licorice, tetrahydrocurcumin (THC), olive leaf, milk thistle, glutamate).
The results are shown in FIG. 6 as the measured amount of HSP70 proteins/μg total protein for each sample. Samples labeled with “*” indicate a p value compared to the control of less than 0.05.

Oc1ccc(/C=C/c2cc(O)cc(O)c2)cc1 [resveratrol, trans-3,5,4′-trihydroxystilbene]
stimulation of HSP70 protein level as compared to control ([1]; 0.003%): 147%
HSP70 induction value (Control = 1) ([1]; 0.003%): 1.47

epigallocatechin-3-gallate [G. T. polyphenol]
stimulation of HSP70 protein level as compared to control ([1]; 0.003%): 124%
HSP70 induction value (Control = 1) ([1]; 0.003%): 1.24

CC(C)=CC[C@@H](O)C1=CC(=O)c2c(O)ccc(O)c2C1=O [shikonin]
stimulation of HSP70 protein level as compared to control ([1]; 1 μM): 170%
HSP70 induction value (Control = 1) ([1]; 1 μM): 1.7

C=C(C)[C@@H]1CCC(C)=C[C@H]1c1c(O)cc(CCCCC)cc1O [CBD, cannabidiol]
stimulation of HSP70 protein level compared to its control [2]: 189%

CCCC(=O)O [butyric acid]
stimulation of HSP70 protein levels as compared to control [3]: 248%
